# Peptide text beside a SMILES is read from it. * marks the point of attachment. X1 = C[C@@H](O)[C@H](NN(CCCNC(N)N)CN*)C(N)=O
# Assays:
# [1] = target: T1, Furin (Homo sapiens, UniProt P09958); assay: Inhibition of human furin using Pyr-RTKR-AMC as substrate preincubated for 30 mins followed by substrate addition and measured by fluorescence based assay
# [2] = target: T1, Furin; assay: Inhibition of furin (unknown origin)
# [3] = Stability in mouse plasma assessed as compound remaining measured after 24 hrs; assay type: ADME, cell-free; conditions: read-out: Stability
# [4] = Stability in mouse plasma assessed as half-life; assay type: ADME, cell-free
# [5] = test system: Vero; assay: Protective activity against Escherichia coli O157:H7 Shiga toxin-induced cytotoxicity in monkey Vero cells measured by LDH assay; assay type: functional, cell-based; conditions: Chlorocebus sabaeus
# [6] = Dissociation constant, pKa of the compound; assay type: physicochemical
# [7] = test system: Mus musculus; assay: Antifibrotic activity against bleomycin-induced mouse lung fibrosis model assessed as inhibition of TGF-beta secretion in lung at 30 mg/kg, po administered once daily; assay type: functional
# [8] = target: T1, Furin; assay: Inhibition of furin in human U2OS cells measured after 24 hrs by fluorescence assay; assay type: cell-based
# [9] = test system: Mus musculus; assay: Antifibrotic activity against bleomycin-induced mouse lung fibrosis model assessed as inhibition of hydroxyproline content in lung at 30 mg/kg, po administered once daily; assay type: functional
# [10] = target: T1, Furin; assay: Inhibition of recombinant human furin using Phac-Arg-Val-Arg-Arg-AMC as substrate incubated for 30 mins and measured by microplate reader method
# [11] = test system: Mus musculus; assay: Antifibrotic activity against bleomycin-induced mouse lung fibrosis model assessed as inhibition of hydroxyproline content in lung at 10 mg/kg, ip administered once daily; assay type: functional
# [12] = test system: Mus musculus; assay: Antifibrotic activity against bleomycin-induced mouse lung fibrosis model assessed as inhibition of TGF-beta secretion in lung at 10 mg/kg, ip administered once daily; assay type: functional
# [13] = target: T1, Furin; assay: Inhibition of human furin expressed in HEK293 cells using pGlu-Arg-Thr-LysArg-AMC as substrate and measured by fluorescence based assay
# [14] = test system: Mus musculus; assay: Antifibrotic activity against bleomycin-induced mouse lung fibrosis model assessed as inhibition of TGF-beta secretion in lung at 10 mg/kg, ip administered twice daily; assay type: functional
# [15] = test system: Mus musculus; assay: Antifibrotic activity against bleomycin-induced mouse lung fibrosis model assessed as inhibition of hydroxyproline content in lung at 10 mg/kg, ip administered twice daily; assay type: functional
# T1 sequence (P09958 whole entry): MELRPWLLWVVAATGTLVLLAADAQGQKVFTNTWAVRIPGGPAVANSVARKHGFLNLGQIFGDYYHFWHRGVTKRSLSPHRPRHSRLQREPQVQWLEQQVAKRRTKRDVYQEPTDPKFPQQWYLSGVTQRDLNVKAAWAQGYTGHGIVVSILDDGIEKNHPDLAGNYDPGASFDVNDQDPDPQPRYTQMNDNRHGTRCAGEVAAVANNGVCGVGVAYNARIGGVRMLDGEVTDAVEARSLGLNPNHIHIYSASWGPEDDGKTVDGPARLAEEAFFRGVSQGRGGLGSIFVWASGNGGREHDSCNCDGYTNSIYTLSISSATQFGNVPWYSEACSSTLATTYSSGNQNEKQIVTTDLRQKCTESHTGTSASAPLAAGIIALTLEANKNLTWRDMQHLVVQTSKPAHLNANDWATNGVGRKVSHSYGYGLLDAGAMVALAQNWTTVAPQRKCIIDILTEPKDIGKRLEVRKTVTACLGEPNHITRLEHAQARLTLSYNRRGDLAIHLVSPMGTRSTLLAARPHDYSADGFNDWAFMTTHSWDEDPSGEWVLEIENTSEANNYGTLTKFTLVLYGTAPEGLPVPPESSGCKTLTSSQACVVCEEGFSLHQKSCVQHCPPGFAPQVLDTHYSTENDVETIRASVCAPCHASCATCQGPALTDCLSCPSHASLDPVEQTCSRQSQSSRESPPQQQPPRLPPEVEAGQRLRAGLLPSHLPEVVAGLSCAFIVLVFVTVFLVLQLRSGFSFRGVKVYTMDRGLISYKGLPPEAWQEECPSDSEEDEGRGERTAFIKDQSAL
compound,measurement,setting,value
CC(=O)N[C@@H](CCCNC(=N)N)C(=O)N[C@H](C(=O)N[C@@H](Cc1ccc(N=C(N)N)cc1)C(=O)NCc1ccc(C(=N)N)cc1)C(C)C,Ki,[1],0.007 µM
CC(=O)N[C@@H](CCCNC(=N)N)C(=O)N[C@@H](C)C(=O)N[C@@H](CCCNC(=N)N)C(=O)N[C@@H](CCCNC(=N)N)C(=O)N[C@@H](CCCNC(=N)N)C(=O)N[C@@H](CCCCN)C(=O)N[C@@H](CCCCN)C(=O)NCN(CCCNC(N)N)N[C@H](C(N)=O)[C@@H](C)O (Ac-RARRRKK-X1),Ki,[2],28 nM
same,remaining at 24 h,[3],57%
same,half-life,[4],2.25 h
same,IC50,[5],314 µM
CC(C)(C)[C@H](NC(=O)[C@H](CCCNC(=N)N)NC(=O)Cc1ccc(CNC(=N)N)cc1)C(=O)N[C@@H](CCCNC(=N)N)C(=O)NCc1ccc(C(=N)N)c(F)c1,IC50,[2],0.00056 µM
same,Ki,[2],0.0223 nM
same,pKa,[6],9.46
O=C(O)CC1CCN(Cc2cc(Oc3cnc(N4CCN5CCC4C5)nc3)nc(-c3cc(Cl)cc(Cl)c3)c2)CC1 (configuration not stated),inhibition in vivo at 30 mg/kg,[7],36%
same,pXC50,[8],7.7
same,inhibition in vivo at 30 mg/kg,[9],34%
CC(C)[C@H](NS(=O)(=O)Cc1ccc(C(=N)N)cc1)C(=O)N[C@@H](CCCNC(=N)N)C(=O)NCc1ccc(C(=N)N)cc1,Ki,[1],0.3 µM
CC(=O)N[C@@H](CCCNC(=N)N)C(=O)N[C@H](C(=O)N[C@@H](Cc1ccc(N=C(N)N)cc1)C(=O)NCc1ccc(C(=N)N)cc1F)C(C)C,Ki,[1],0.009 µM
CC(=O)N[C@@H](CCCNC(=N)N)C(=O)N[C@H](C(=O)N[C@@H](Cc1ccc(N=C(N)N)cc1)C(=O)NCc1ccc(C(=N)N)c(F)c1)C(C)C,Ki,[1],0.0037 µM
CC(C)(C)[C@H](NC(=O)CCCCNC(=N)N)C(=O)N[C@@H](CCCNC(=N)N)C(=O)NCc1ccc(C(=N)N)cc1,Ki,[10],0.00126 µM
CC(=O)NCC1CCN(Cc2cc(Oc3ccc(N4CCN(CCO)CC4)nc3)nc(-c3cc(Cl)cc(Cl)c3)c2)CC1,pXC50,[8],8.5
same,inhibition in vivo at 10 mg/kg,[11],56%
same,inhibition in vivo at 10 mg/kg,[12],60%
COC(=O)NCC1CCN(Cc2cc(Oc3cnc(N4CCN(CCC(=O)O)CC4)nc3)nc(-c3cc(Cl)cc(Cl)c3)c2)CC1,inhibition in vivo at 30 mg/kg,[7],7%
same,pXC50,[8],7.5
same,inhibition in vivo at 30 mg/kg,[9],-14%
CNC(=O)NCC1CCN(Cc2cc(Oc3ccc(N4CCN(CCC(=O)O)CC4)nc3)nc(-c3cc(Cl)cc(Cl)c3)c2)CC1,pXC50,[8],7.6
same,inhibition in vivo at 10 mg/kg,[11],39%
same,inhibition in vivo at 10 mg/kg,[12],67%
CC(C)[C@H](NC(=O)CCCCNC(=N)N)C(=O)N[C@@H](CCCNC(=N)N)C(=O)NCc1ccc(C(=N)N)cc1,Ki,[10],0.0025 µM
CC(C)(C)[C@H](NC(=O)[C@H](CCCNC(=N)N)NC(=O)Cc1ccccc1)C(=O)N[C@@H](CCCNC(=N)N)C(=O)NCc1ccc(C(=N)N)cc1,Ki,[13],170 pM
CC(C)(C)[C@H](NC(=O)[C@H](CCCNC(=N)N)NC(=O)Cc1ccc(CNC(=N)N)cc1)C(=O)N[C@@H](CCCNC(=N)N)C(=O)NCc1ccc(CN)cc1,IC50,[2],0.00953 µM
same,Ki,[2],2.52 nM
same,pKa,[6],9.28
CC(C)(C)[C@H](NC(=O)[C@H](CCCNC(=N)N)NC(=O)Cc1ccc(CNC(=N)N)cc1)C(=O)N[C@@H](CCCNC(=N)N)C(=O)NCc1ccc(N)nc1,IC50,[2],0.00298 µM
same,Ki,[2],0.8 nM
same,pKa,[6],6.5
CN1CCCN(c2ncc(Oc3cc(CN4CCC(CC(=O)O)CC4)cc(-c4cc(Cl)cc(Cl)c4)n3)cn2)CC1,inhibition in vivo at 30 mg/kg,[7],34%
same,pXC50,[8],8.2
same,inhibition in vivo at 30 mg/kg,[9],36%
CC(C)[C@H](NC(=O)[C@H](CCCNC(=N)N)NC(=O)Cc1ccc(CNC(=N)N)cc1)C(=O)N[C@@H](CCCNC(=N)N)C(=O)NCc1ccc(C(=N)N)cc1,Ki,[13],7.6 pM
CC(=O)NN(CCCNC(=N)N)CC(=O)N[C@@H](C)C(=O)N[C@@H](CCCNC(=N)N)C(=O)N[C@@H](CCCNC(=N)N)C(=O)N[C@@H](CCCNC(=N)N)C(=O)N[C@@H](CCCCN)C(=O)N[C@@H](CCCCN)C(=O)NN(CCCNC(=N)N)CC(=O)N[C@H](C(N)=O)[C@@H](C)O,Ki,[2],46 nM
same,remaining at 24 h,[3],45%
same,half-life,[4],2.68 h
same,IC50,[5],20.8 µM
CC(=O)N[C@@H](CCCNC(=N)N)C(=O)NN(CCCNC(=N)N)CC(=O)N[C@@H](C)C(=O)N[C@@H](CCCNC(=N)N)C(=O)N[C@@H](CCCNC(=N)N)C(=O)N[C@@H](CCCNC(=N)N)C(=O)N[C@@H](CCCCN)C(=O)N[C@@H](CCCCN)C(=O)N[C@@H](CCCNC(=N)N)C(=O)N[C@H](C(N)=O)[C@@H](C)O,Ki,[2],12 nM
same,remaining at 24 h,[3],29%
same,half-life,[4],1.04 h
same,IC50,[5],> 1000 µM
CC(=O)NCC1CCN(Cc2cc(Oc3ccc(N4CCN(CCC(=O)O)CC4)nc3)nc(-c3cc(Cl)cc(Cl)c3)c2)CC1,inhibition in vivo at 10 mg/kg,[14],69%
same,pXC50,[8],7.6
same,inhibition in vivo at 10 mg/kg,[15],67%

# — ChEMBL document CHEMBL5150003, “Why All the Fury over Furin?” (J Med Chem, 2022)
